Results taken from patent US20230332232A1, “COMPOSITIONS AND METHODS FOR DIAGNOSING AND TREATING A DYSTONIA” (Duke University, priority 2020, published 2023).

Tested on: wild-type (WT) murine embryonic fibroblasts (MEFs)
Assay: Untargeted LC/MS/MS proteomics of EVs from WT MEFs exposed 24 hours to drug, compared with untreated WT MEFs
Assay type: cell-based, mouse
Settings: for direction of modulated EV protein expression: WT cells
Procedure: Methods for isolation and purification of exosomes and extracellular vesicles (EV) were extensively reviewed. Experiments were performed to arrive at a robust and reproducible protocol. The protocol used herein is that set forth in Théry et al, 2006, which is incorporated by reference for it teaching of this protocol. This protocol involves depleting serum-derived EVs from cell culture media by overnight ultracentrifugation and exchanging media for 1% FBS EV-depleted media. Media is then collected from cells following a 24-hour conditioning period and EVs are isolated by 18-hour ultracentrifugation at 100,000 g (FIG. 1A).
EVs were isolated from media of cultured murine embryonic fibroblasts (MEFs) prepared in-house according to protocols described by Xu 2005 from DYT1 knockin mice (Tor1a^delGAG/+) (Goodchild R E, et al. (2005) Neuron. 48:923-932) and littermate wild-type (WT) controls. The cultured MEFs from the DYT1 mice were exposed for 24 hours to Ritonavir (RTV) while the MEFs from WT mice were exposed to vehicle, ISRIB, or Salubrinal (SAL). The EVs isolated from these WT cells and DYT1 were characterized by untargeted proteomics and RNA-seq to identify differentially expressed proteins and RNAs as candidate biomarkers. Experimenter and Proteomics core staff were blinded to genotype of cell cultures throughout preparation and analysis phases. EV isolation was confirmed by Western immunoblot documenting presence of the exosomal marker (TSG101) and absence of the endoplasmic reticulum (ER) marker (CANX) (FIG. 1B (Cohort 1) and FIG. 1C (Cohort 2)).
Following the bicinchoninic acid assay (BCA) analysis and Western immunoblot of a portion of samples for QC, 11.6 μg-129.2 μg of EV protein lysates in RIPA buffer were sent to the Duke Proteomics and Metabolomics Shared Resource core facility for LC/MS/MS quantitative proteomic analysis. Samples were first normalized to 20 μg and spiked with undigested casein at a total of 40 fmol/μg, 80 fmol/μg, or 160 fmol/μg, then reduced with 10 mM dithiolthreitol for 30 minute at 80° C. and alkylated with 20 mM iodoacetamide for 30 minutes at room temperature. Next, the samples were supplemented with a final concentration of 1.2% phosphoric acid and 741 μL of S-Trap (Protifi) binding buffer (90% MeOH/100 mM […]). Proteins were trapped on the S-Trap, digested using 20 ng/μL sequencing grade trypsin (Promega) for 1 hour at 47° C., and eluted using 50 mM TEAB, followed by 0.2% FA, and lastly using 50% CAN/0.2% FA. All samples were then lyophilized to dryness and resuspended in 40 μL 1% TFA/2% acetonitrile containing 12.5 fmol/μL yeast alcohol dehydrogenase (ADH_YEAST). A QC Pool was created from 3 uL of each sample. All QC Pools were run periodically throughout the acquisition period.
Quantitative LC/MS/MS was performed on 2 μL of each sample, using a nanoAcquity UPLC system (Waters Corp) coupled to a Thermo Orbitrap Fusion Lumos high resolution accurate mass tandem mass spectrometer (Thermo) via a nanoelectrospray ionization source. Briefly, the sample was first trapped on a Symmetry C18 20 mm×180 μm trapping column (5 μL/min at 99.9/0.1 v/v water/acetonitrile), after which the analytical separation was performed using a 1.8 μm Acquity HSS T3 C18 75 μm×250 mm column (Waters Corp.) with a 90 minute linear gradient of 5% to 30% acetonitrile with 0.1% formic acid at a flow rate of 400 nanoliters/minute (nL/min) with a column temperature of 55° C. Data collection on the Fusion Lumos mass spectrometer was performed in a data-dependent acquisition (DDA) mode of acquisition with a r=120,000 (@ m/z 200) full MS scan from m/z 375-1500 with a target AGC value of 2e5 ions. MS/MS scans were acquired at Rapid scan rate (Ion Trap) with an AGC target of 5e3 ions and a max injection time of 100 ms. The total cycle time for MS and MS/MS scans was 2 seconds. A 20 second dynamic exclusion was employed to increase depth of coverage. The total analysis cycle time for each sample injection was approximately 2 hours. […]

[1] = EV protein Prep, Prolyl endopeptidase
[2] = EV protein Protein transport protein Sec31A
[3] = EV protein Q8BPB5, EGF-containing fibulin-like ECM protein 1
[4] = EV protein Q8C878, NEDD8-activating enzyme E1 catalytic subunit
[5] = EV protein Q8R081, Heterogeneous nuclear ribonucleoprotein 1
[6] = EV protein Q9D1M4, Eukaryotic translation EF1 epsilon-1
[7] = EV protein Q62261, Spectrin beta chain, non-crythrocytic 1
[8] = EV protein Q89051, Integral membrane protein 2B
[9] = EV protein Regulator of nonsense transcripts 1

**Q.** `O=C(COc1ccc(Cl)cc1)NC1CCC(NC(=O)COc2ccc(Cl)cc2)CC1` (stereo not drawn) [ISRIB] was tested. Which “ISRIBvWT Z Score” value (EV protein P27612, Phospholipase A-2-activating protein) did it give?
**A.** −2.39

**Q.** And the “ISRIB Direction Same as dE?” value (EV protein P48678, Prelamin-)?
**A.** yes

**Q.** And the “ISRIBvWT Z Score” value (EV protein P48678, Prelamin-)?
**A.** −0.19

**Q.** And the “ISRIBvWT Z Score” value (EV protein P61089, Ubiquitin-conjugating enzyme)?
**A.** 0.41

**Q.** And the “ISRIBvWT Z Score” value (EV protein Pdia4 (P08003))?
**A.** 1.37

**Q.** What about the “ISRIBvWT Z Score” value (EV protein Penk (P22005)) of the same molecule?
**A.** −0.11

**Q.** And the “ISRIBvWT Z Score” value (EV protein Plaa P27612)?
**A.** −2.39

**Q.** What about the “ISRIBvWT Z Score” value (EV protein Pld3 (Q35405)) of the same molecule?
**A.** 1.18

**Q.** And the “ISRIB Direction Same as dE?” value [1]?
**A.** yes

**Q.** What about the “ISRIBvWT Z Score” value [1] of the same molecule?
**A.** −1.11

**Q.** And the “ISRIB Direction Same as dE?” value [2]?
**A.** yes

**Q.** And the “ISRIBvWT Z Score” value [2]?
**A.** −1.34

**Q.** What about the “ISRIB Direction Same as dE?” value (EV protein Prpf8 (Q99PV0)) of the same molecule?
**A.** yes

**Q.** What about the “ISRIBvWT Z Score” value (EV protein Prpf8 (Q99PV0)) of the same molecule?
**A.** −0.01

**Q.** And the “ISRIB Direction Same as dE?” value (EV protein Psmd1 (Q3TXS7))?
**A.** yes

**Q.** What about the “ISRIBvWT Z Score” value (EV protein Psmd1 (Q3TXS7)) of the same molecule?
**A.** −0.65

**Q.** And the “ISRIBvWT Z Score” value (EV protein Pura (P42669))?
**A.** 0.52

**Q.** And the “ISRIBvWT Z Score” value (EV protein Q6X893, Choline transporter-like protein 1)?
**A.** 0.80

**Q.** What about the “ISRIBvWT Z Score” value (EV protein Q8BL97, Serine arginine-rich splicing factor 7) of the same molecule?
**A.** 0.13

**Q.** What about the “ISRIB Direction Same as dE?” value [3] of the same molecule?
**A.** yes

**Q.** And the “ISRIBvWT Z Score” value [3]?
**A.** 0.07

**Q.** And the “ISRIB Direction Same as dE?” value [4]?
**A.** yes

**Q.** What about the “ISRIBvWT Z Score” value [4] of the same molecule?
**A.** −1.68

**Q.** What about the “ISRIBvWT Z Score” value (EV protein Q8C878 NEDD8-activating enzyme .. subunit) of the same molecule?
**A.** −1.68

**Q.** And the “ISRIB Direction Same as dE?” value [5]?
**A.** yes

**Q.** And the “ISRIBvWT Z Score” value [5]?
**A.** −0.32

**Q.** What about the “ISRIB Direction Same as dE?” value [6] of the same molecule?
**A.** yes

**Q.** And the “ISRIBvWT Z Score” value [6]?
**A.** −3.65

**Q.** And the “ISRIBvWT Z Score” value (EV protein Q9FS30, Complement C1q tumor necrosis factor-related protein 3)?
**A.** −0.18

**Q.** What about the “ISRIBvWT Z Score” value (EV protein Q9Z1Z0, General vesicular transport factor p115) of the same molecule?
**A.** 2.44

**Q.** What about the “ISRIBvWT Z Score” value (EV protein Q9Z2X1 Heterogeneous nuclear ribonucleoprotein E) of the same molecule?
**A.** −0.18

**Q.** And the “ISRIBvWT Z Score” value (EV protein Q78ZA7, Nucelosome assembly protein 1-like 4)?
**A.** 2.43

**Q.** And the “ISRIBvWT Z Score” value (EV protein Q99KJ8 Dynactin subunit 2)?
**A.** 0.53

**Q.** What about the “ISRIBvWT Z Score” value (EV protein Q922B2 Aspartate--tRNA ligase) of the same molecule?
**A.** −1.13

**Q.** What about the “ISRIBvWT Z Score” value (EV protein Q01405 Protein transport protein .. 23A) of the same molecule?
**A.** −0.95

**Q.** And the “ISRIBvWT Z Score” value (EV protein Q60751, Insulin-like growth factor 1 receptor)?
**A.** 0.75

**Q.** And the “ISRIB Direction Same as dE?” value [7]?
**A.** yes

**Q.** What about the “ISRIBvWT Z Score” value [7] of the same molecule?
**A.** −0.82

**Q.** And the “ISRIB Direction Same as dE?” value [8]?
**A.** yes

**Q.** What about the “ISRIBvWT Z Score” value [8] of the same molecule?
**A.** −2.13

**Q.** And the “ISRIB Direction Same as dE?” value (EV protein Qars (Q8BML9))?
**A.** yes

**Q.** What about the “ISRIBvWT Z Score” value (EV protein Qars (Q8BML9)) of the same molecule?
**A.** −2.14

**Q.** What about the “ISRIBvWT Z Score” value (EV protein Rab6a (P35279)) of the same molecule?
**A.** 0.44

**Q.** And the “ISRIB Direction Same as dE?” value (EV protein Rbbp4 (Q60972))?
**A.** yes

**Q.** And the “ISRIBvWT Z Score” value (EV protein Rbbp4 (Q60972))?
**A.** −1.73

**Q.** And the “ISRIB Direction Same as dE?” value [9]?
**A.** yes

**Q.** And the “ISRIBvWT Z Score” value [9]?
**A.** −1.84

**Q.** And the “ISRIBvWT Z Score” value (EV protein Rpl22 (P67984))?
**A.** 2.38

**Q.** And the “ISRIBvWT Z Score” value (EV protein S100a11 (P50543))?
**A.** 0.33

**Q.** And the “ISRIBvWT Z Score” value (EV protein Scarb2 (Q35114))?
**A.** 0.09

**Q.** And the “ISRIB Direction Same as dE?” value (EV protein Sec23a (Q01405))?
**A.** yes

**Q.** What about the “ISRIBvWT Z Score” value (EV protein Sec23a (Q01405)) of the same molecule?
**A.** −0.95

**Q.** What about the “ISRIB Direction Same as dE?” value (EV protein Shmt2 (Q9CZN7)) of the same molecule?
**A.** yes

**Q.** What about the “ISRIBvWT Z Score” value (EV protein Shmt2 (Q9CZN7)) of the same molecule?
**A.** −1.44

**Q.** And the “ISRIBvWT Z Score” value (EV protein Shrnt2 Q9CZN7)?
**A.** −1.44

**Q.** What about the “ISRIB Direction Same as dE?” value (EV protein Spp1 (P10923)) of the same molecule?
**A.** yes

**Q.** And the “ISRIBvWT Z Score” value (EV protein Spp1 (P10923))?
**A.** 2.67

**Q.** What about the “ISRIB Direction Same as dE?” value (EV protein Sptan1 (P16546)) of the same molecule?
**A.** yes

**Q.** And the “ISRIBvWT Z Score” value (EV protein Sptan1 (P16546))?
**A.** −0.40

**Q.** What about the “ISRIBvWT Z Score” value (EV protein Ssb (P32067)) of the same molecule?
**A.** 0.41

**Q.** What about the “ISRIB Direction Same as dE?” value (EV protein Ssbp1 (Q9CYR0)) of the same molecule?
**A.** yes

**Q.** And the “ISRIBvWT Z Score” value (EV protein Ssbp1 (Q9CYR0))?
**A.** −1.49

**Q.** And the “ISRIBvWT Z Score” value (EV protein Svep1 (A2A0A0))?
**A.** −0.50

**Q.** What about the “ISRIB Direction Same as dE?” value (EV protein Tars (Q9D0R2)) of the same molecule?
**A.** yes

**Q.** What about the “ISRIBvWT Z Score” value (EV protein Tars (Q9D0R2)) of the same molecule?
**A.** −1.16

**Q.** What about the “ISRIBvWT Z Score” value (EV protein Tra2b (P62996)) of the same molecule?
**A.** 0.54

**Q.** What about the “ISRIBvWT Z Score” value (EV protein Vapa (Q9WV55)) of the same molecule?
**A.** 3.18

**Q.** And the “direction of modulated EV protein expression” value (RTV Therapeutic Efficacy with ISRIB Insensitivity subset, 33 proteins)?
**A.** in the opposite direction of DYT1 genotype-dependent direction

**Q.** And the “direction of modulated EV protein expression” value (RTV Therapeutic Efficacy with ISRIB Sensitivity subset, 121 proteins)?
**A.** modulated expression in a predicted pathological direction
